# According to PubChem BioAssay AID1259407 (Chemical Carcinogenesis Research Information System (CCRIS), 2018):
# The source made the active and inactive calls. No rule for the calls is given here.
# Test system: CCRIS mutagenicity, Ames/micronucleus/aberration tests
# Experiment: CCRIS mutagenicity studies
# [1] = Test System: AMES SALMONELLA TYPHIMURIUM, Strain/Indicator: TA98, Metabolic Activation: NONE, Method: PREINCUBATION
# [2] = Test System: AMES SALMONELLA TYPHIMURIUM, Strain/Indicator: TA100, Metabolic Activation: NONE, Method: PREINCUBATION
compound,measurement,setting,value
COc1ccc2c3c(cccc13)C(=O)N(C)C2=O,mutagenic call,[1],inactive; negative
same,mutagenic call,"Test System: AMES SALMONELLA TYPHIMURIUM, Strain/Indicator: TA98, Metabolic Activation: S-9, Method: PREINCUBATION",inactive; negative
same,mutagenic call,[2],inactive; negative
same,mutagenic call,"Test System: AMES SALMONELLA TYPHIMURIUM, Strain/Indicator: TA100, Metabolic Activation: S-9, Method: PREINCUBATION",inactive; negative
CC(C)(C#N)C(C)(C)C#N,mutagenic call,"Test System: AMES SALMONELLA TYPHIMURIUM, Strain/Indicator: TA97, Metabolic Activation: HAMSTER, LIVER, S-9, AROCLOR 1254 (10 OR 30%), Method: PREINCUBATION",inactive; negative
same,mutagenic call,"Test System: AMES SALMONELLA TYPHIMURIUM, Strain/Indicator: TA97, Metabolic Activation: NONE, Method: PREINCUBATION",inactive; negative
same,mutagenic call,"Test System: AMES SALMONELLA TYPHIMURIUM, Strain/Indicator: TA97, Metabolic Activation: RAT, LIVER, S-9, AROCLOR 1254 (10 OR 30%), Method: PREINCUBATION",inactive; negative
same,mutagenic call,"Test System: AMES SALMONELLA TYPHIMURIUM, Strain/Indicator: TA97, Method: PREINCUBATION",inactive; negative
same,mutagenic call,"Test System: AMES SALMONELLA TYPHIMURIUM, Strain/Indicator: TA98, Metabolic Activation: HAMSTER, LIVER, S-9, AROCLOR 1254 (10 OR 30%), Method: PREINCUBATION",inactive; negative
same,mutagenic call,"Test System: AMES SALMONELLA TYPHIMURIUM, Strain/Indicator: TA98, Metabolic Activation: HAMSTER, LIVER, S-9, AROCLOR 1254, Method: STANDARD PLATE",inactive; negative
same,mutagenic call,[1],inactive; negative
same,mutagenic call,"Test System: AMES SALMONELLA TYPHIMURIUM, Strain/Indicator: TA98, Metabolic Activation: NONE, Method: STANDARD PLATE",inactive; negative
same,mutagenic call,"Test System: AMES SALMONELLA TYPHIMURIUM, Strain/Indicator: TA98, Metabolic Activation: RAT, LIVER, S-9, AROCLOR 1254 (10 OR 30%), Method: PREINCUBATION",inactive; negative
same,mutagenic call,"Test System: AMES SALMONELLA TYPHIMURIUM, Strain/Indicator: TA98, Metabolic Activation: RAT, LIVER, S-9, AROCLOR 1254, Method: STANDARD PLATE",inactive; negative
same,mutagenic call,"Test System: AMES SALMONELLA TYPHIMURIUM, Strain/Indicator: TA98, Method: PREINCUBATION",inactive; negative
same,mutagenic call,"Test System: AMES SALMONELLA TYPHIMURIUM, Strain/Indicator: TA100, Metabolic Activation: HAMSTER, LIVER, S-9, AROCLOR 1254 (10 OR 30%), Method: PREINCUBATION",inactive; negative
same,mutagenic call,"Test System: AMES SALMONELLA TYPHIMURIUM, Strain/Indicator: TA100, Metabolic Activation: HAMSTER, LIVER, S-9, AROCLOR 1254, Method: STANDARD PLATE",inactive; negative
same,mutagenic call,[2],inactive; negative
same,mutagenic call,"Test System: AMES SALMONELLA TYPHIMURIUM, Strain/Indicator: TA100, Metabolic Activation: NONE, Method: STANDARD PLATE",inactive; negative
same,mutagenic call,"Test System: AMES SALMONELLA TYPHIMURIUM, Strain/Indicator: TA100, Metabolic Activation: RAT, LIVER, S-9, AROCLOR 1254 (10 OR 30%), Method: PREINCUBATION",inactive; negative
same,mutagenic call,"Test System: AMES SALMONELLA TYPHIMURIUM, Strain/Indicator: TA100, Metabolic Activation: RAT, LIVER, S-9, AROCLOR 1254, Method: STANDARD PLATE",inactive; negative
same,mutagenic call,"Test System: AMES SALMONELLA TYPHIMURIUM, Strain/Indicator: TA100, Method: PREINCUBATION",inactive; negative
same,mutagenic call,"Test System: AMES SALMONELLA TYPHIMURIUM, Strain/Indicator: TA102, Metabolic Activation: NONE, Method: PREINCUBATION",inactive; negative
same,mutagenic call,"Test System: AMES SALMONELLA TYPHIMURIUM, Strain/Indicator: TA102, Method: PREINCUBATION",inactive; negative
same,mutagenic call,"Test System: AMES SALMONELLA TYPHIMURIUM, Strain/Indicator: TA1535, Metabolic Activation: HAMSTER, LIVER, S-9, AROCLOR 1254 (10 OR 30%), Method: PREINCUBATION",inactive; negative
same,mutagenic call,"Test System: AMES SALMONELLA TYPHIMURIUM, Strain/Indicator: TA1535, Metabolic Activation: HAMSTER, LIVER, S-9, AROCLOR 1254, Method: STANDARD PLATE",inactive; negative
same,mutagenic call,"Test System: AMES SALMONELLA TYPHIMURIUM, Strain/Indicator: TA1535, Metabolic Activation: NONE, Method: PREINCUBATION",inactive; negative
same,mutagenic call,"Test System: AMES SALMONELLA TYPHIMURIUM, Strain/Indicator: TA1535, Metabolic Activation: NONE, Method: STANDARD PLATE",inactive; negative
same,mutagenic call,"Test System: AMES SALMONELLA TYPHIMURIUM, Strain/Indicator: TA1535, Metabolic Activation: RAT, LIVER, S-9, AROCLOR 1254 (10 OR 30%), Method: PREINCUBATION",inactive; negative
same,mutagenic call,"Test System: AMES SALMONELLA TYPHIMURIUM, Strain/Indicator: TA1535, Metabolic Activation: RAT, LIVER, S-9, AROCLOR 1254, Method: STANDARD PLATE",inactive; negative
same,mutagenic call,"Test System: AMES SALMONELLA TYPHIMURIUM, Strain/Indicator: TA1537, Metabolic Activation: NONE, Method: STANDARD PLATE",inactive; negative
same,mutagenic call,"Test System: AMES SALMONELLA TYPHIMURIUM, Strain/Indicator: TA1537, Metabolic Activation: RAT, LIVER, S-9, AROCLOR 1254, Method: STANDARD PLATE",inactive; negative
same,mutagenic call,"Test System: AMES SALMONELLA TYPHIMURIUM, Strain/Indicator: TA1538, Metabolic Activation: HAMSTER, LIVER, S-9, AROCLOR 1254, Method: STANDARD PLATE",inactive; negative
same,mutagenic call,"Test System: AMES SALMONELLA TYPHIMURIUM, Strain/Indicator: TA1538, Metabolic Activation: NONE, Method: STANDARD PLATE",inactive; negative
same,mutagenic call,"Test System: AMES SALMONELLA TYPHIMURIUM, Strain/Indicator: TA1538, Metabolic Activation: RAT, LIVER, S-9, AROCLOR 1254, Method: STANDARD PLATE",inactive; negative
same,mutagenic call,"Test System: MOUSE LYMPHOMA, Strain/Indicator: L5178Y (TK+/TK-), Metabolic Activation: NONE, Method: SUSPENSION/PLATE",inactive; negative. reevaluation of results: negative
same,mutagenic call,"Test System: MOUSE LYMPHOMA, Strain/Indicator: L5178Y (TK+/TK-), Metabolic Activation: RAT, LIVER, S-9, AROCLOR 1254, Method: SUSPENSION/PLATE",inactive; negative. reevaluation of results: negative
CCCCCN(CCCC)N=O,mutagenic call,"Test System: AMES SALMONELLA TYPHIMURIUM, Strain/Indicator: TA100, Metabolic Activation: RAT, LIVER, S-9, KC500 OR PHENOBARBITAL, Method: LIQUID SUSPENSION",active; positive
